{"source": "paper PMC10910633", "about": "(Journal of the American Chemical Society, 2023)", "key": {"Jurkat E6-1 cells": {"system": "Jurkat E6-1 cells", "assay": "Cytotoxicity towards Jurkat lymphocytes", "type": "cell-based"}, "native PKCη": {"target": "native PKCη (Mus musculus, UniProt P23298)", "sequence (P23298 whole entry)": "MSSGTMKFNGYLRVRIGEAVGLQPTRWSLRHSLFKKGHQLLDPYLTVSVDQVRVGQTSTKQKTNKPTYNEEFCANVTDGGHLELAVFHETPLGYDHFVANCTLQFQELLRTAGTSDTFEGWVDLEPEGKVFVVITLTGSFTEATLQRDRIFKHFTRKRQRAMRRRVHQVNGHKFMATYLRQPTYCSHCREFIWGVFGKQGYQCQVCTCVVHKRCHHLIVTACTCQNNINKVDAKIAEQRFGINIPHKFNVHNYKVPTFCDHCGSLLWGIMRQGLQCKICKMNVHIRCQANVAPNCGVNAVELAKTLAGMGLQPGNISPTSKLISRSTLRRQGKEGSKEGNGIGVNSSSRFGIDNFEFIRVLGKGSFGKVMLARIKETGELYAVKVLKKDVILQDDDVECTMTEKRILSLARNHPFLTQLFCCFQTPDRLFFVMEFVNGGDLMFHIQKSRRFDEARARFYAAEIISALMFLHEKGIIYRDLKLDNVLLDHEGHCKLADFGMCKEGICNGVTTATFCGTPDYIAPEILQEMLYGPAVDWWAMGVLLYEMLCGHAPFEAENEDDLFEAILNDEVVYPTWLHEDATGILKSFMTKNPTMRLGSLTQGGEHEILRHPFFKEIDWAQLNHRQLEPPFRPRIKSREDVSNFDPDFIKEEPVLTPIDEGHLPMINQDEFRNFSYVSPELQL", "assay": "cell-based", "type": "binding"}, "native PKCγ": {"target": "native PKCγ (Mus musculus, UniProt P63318)", "assay": "cell-based", "type": "binding"}, "native PKCδ": {"target": "native PKCδ (Mus musculus, UniProt P28867)", "sequence (P28867 whole entry)": "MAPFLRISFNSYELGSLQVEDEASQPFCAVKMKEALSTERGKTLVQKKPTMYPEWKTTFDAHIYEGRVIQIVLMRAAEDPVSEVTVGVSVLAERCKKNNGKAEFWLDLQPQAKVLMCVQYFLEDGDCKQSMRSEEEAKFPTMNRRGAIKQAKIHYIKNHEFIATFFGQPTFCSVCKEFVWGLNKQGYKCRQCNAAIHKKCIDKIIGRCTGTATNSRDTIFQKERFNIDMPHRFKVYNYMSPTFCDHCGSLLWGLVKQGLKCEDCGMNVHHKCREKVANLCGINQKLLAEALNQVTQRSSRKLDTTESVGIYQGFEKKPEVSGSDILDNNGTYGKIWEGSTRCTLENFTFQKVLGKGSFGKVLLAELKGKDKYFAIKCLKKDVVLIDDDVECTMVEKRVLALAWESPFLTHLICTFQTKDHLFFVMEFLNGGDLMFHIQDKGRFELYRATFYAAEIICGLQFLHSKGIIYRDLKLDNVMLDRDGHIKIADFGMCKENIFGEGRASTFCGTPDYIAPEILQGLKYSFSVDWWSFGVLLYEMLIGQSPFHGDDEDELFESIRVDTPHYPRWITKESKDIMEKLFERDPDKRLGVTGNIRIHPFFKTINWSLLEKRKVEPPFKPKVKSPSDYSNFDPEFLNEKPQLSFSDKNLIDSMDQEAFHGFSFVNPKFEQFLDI", "assay": "cell-based", "type": "binding"}, "HEK293T cells": {"system": "HEK293T cells", "assay": "Cytotoxicity towards HEK293T cells", "type": "cell-based", "conditions": "treatment for 48 h at concentrations of ≤ 10 μM"}, "native PKCβI": {"target": "native PKCβI (Mus musculus, UniProt P68404)", "sequence (P68404 whole entry)": "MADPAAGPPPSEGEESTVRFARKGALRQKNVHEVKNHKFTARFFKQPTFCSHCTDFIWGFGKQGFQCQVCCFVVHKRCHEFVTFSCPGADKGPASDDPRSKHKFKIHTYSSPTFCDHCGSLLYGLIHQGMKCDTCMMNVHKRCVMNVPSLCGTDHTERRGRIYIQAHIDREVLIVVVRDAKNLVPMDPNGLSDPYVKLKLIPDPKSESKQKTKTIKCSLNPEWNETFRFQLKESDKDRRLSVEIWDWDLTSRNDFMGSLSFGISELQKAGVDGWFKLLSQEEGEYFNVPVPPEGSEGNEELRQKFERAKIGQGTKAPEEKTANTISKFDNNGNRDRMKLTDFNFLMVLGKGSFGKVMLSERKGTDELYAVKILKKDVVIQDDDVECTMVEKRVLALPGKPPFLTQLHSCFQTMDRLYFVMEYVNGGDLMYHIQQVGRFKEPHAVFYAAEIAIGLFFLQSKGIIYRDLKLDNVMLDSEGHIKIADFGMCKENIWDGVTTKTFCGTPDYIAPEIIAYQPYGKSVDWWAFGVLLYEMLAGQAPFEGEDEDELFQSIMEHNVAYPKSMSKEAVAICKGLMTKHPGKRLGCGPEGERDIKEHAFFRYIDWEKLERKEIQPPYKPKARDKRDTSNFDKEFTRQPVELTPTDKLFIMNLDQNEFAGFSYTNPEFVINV", "assay": "cell-based", "type": "binding"}, "PKCδ": {"target": "PKCδ", "conditions": "read-out: Previously reported biochemical Ki values, PDBu; cited from earlier work"}, "native PKCζ": {"target": "T1, native PKCζ (Mus musculus, UniProt Q02956)", "T1 sequence (Q02956 1-592)": "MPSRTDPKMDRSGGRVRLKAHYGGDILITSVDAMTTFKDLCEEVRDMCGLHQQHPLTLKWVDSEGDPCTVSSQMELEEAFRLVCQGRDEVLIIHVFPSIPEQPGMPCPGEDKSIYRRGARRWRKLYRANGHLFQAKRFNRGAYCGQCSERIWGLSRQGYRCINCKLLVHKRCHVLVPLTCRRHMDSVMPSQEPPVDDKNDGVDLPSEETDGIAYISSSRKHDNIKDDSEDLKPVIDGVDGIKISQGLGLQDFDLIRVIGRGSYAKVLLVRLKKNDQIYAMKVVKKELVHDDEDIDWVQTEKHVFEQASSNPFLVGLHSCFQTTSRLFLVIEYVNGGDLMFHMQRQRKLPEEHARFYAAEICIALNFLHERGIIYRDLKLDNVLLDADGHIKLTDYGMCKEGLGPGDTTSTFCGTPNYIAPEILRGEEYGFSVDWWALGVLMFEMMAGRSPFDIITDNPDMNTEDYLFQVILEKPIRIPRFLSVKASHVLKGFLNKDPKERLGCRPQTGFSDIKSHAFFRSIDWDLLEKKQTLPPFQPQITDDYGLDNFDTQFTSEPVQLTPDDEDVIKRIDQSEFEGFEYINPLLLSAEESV", "type": "binding"}, "native PKCθ": {"target": "native PKCθ (Mus musculus, UniProt Q02111)", "sequence (Q02111 whole entry)": "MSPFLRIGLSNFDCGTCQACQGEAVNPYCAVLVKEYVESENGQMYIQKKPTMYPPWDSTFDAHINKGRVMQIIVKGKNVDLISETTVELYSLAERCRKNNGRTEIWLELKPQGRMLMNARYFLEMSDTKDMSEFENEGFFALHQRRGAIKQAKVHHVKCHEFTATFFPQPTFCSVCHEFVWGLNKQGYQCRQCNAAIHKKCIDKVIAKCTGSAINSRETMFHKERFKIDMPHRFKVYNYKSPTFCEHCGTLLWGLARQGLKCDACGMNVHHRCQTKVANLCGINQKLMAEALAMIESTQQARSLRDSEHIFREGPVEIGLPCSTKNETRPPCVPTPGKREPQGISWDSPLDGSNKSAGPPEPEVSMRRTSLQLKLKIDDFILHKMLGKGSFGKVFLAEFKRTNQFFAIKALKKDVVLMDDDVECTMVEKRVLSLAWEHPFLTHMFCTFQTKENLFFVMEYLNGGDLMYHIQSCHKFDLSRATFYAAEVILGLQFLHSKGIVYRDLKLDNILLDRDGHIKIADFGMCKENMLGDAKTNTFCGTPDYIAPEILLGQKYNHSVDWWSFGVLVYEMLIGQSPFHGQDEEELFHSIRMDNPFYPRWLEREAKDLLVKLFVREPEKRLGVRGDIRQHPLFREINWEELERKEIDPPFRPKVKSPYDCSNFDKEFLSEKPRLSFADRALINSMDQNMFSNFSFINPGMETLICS", "assay": "cell-based", "type": "binding"}, "native PKCε": {"target": "T2, native PKCε (Mus musculus, UniProt P16054)", "T2 sequence (P16054 1-737)": "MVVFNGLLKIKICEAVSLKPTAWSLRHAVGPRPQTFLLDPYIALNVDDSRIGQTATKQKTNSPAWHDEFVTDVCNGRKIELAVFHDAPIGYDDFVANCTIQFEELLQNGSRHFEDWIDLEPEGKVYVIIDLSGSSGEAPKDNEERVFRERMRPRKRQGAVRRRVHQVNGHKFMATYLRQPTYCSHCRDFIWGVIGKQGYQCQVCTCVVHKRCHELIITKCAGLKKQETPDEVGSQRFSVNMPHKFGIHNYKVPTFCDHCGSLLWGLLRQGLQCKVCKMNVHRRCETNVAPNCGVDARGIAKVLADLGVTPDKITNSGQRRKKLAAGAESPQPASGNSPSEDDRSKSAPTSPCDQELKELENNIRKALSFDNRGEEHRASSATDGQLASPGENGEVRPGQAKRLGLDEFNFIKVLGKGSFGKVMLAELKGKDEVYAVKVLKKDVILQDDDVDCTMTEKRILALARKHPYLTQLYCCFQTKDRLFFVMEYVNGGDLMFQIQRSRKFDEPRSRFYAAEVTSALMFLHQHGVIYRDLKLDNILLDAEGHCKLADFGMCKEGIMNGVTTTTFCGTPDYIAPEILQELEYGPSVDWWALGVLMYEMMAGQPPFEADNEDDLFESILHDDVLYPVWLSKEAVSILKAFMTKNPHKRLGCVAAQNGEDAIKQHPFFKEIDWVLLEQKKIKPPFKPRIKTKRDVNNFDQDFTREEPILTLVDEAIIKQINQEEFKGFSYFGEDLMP", "assay": "cell-based", "type": "binding"}, "PKCζ": {"target": "PKCζ", "conditions": "[3H]PDBu at 4 °C; cited from earlier work"}, "PKCα": {"target": "PKCα", "conditions": "read-out: Previously reported biochemical Ki values, Bryostatin 1, [3H]PDBu at 4 °C; cited from earlier work"}, "PKCε": {"target": "PKCε", "conditions": "read-out: Previously reported biochemical Ki values, Bryostatin 1, [3H]PDBu at 4 °C; cited from earlier work"}, "PKCη": {"target": "PKCη", "conditions": "read-out: Previously reported biochemical Ki values, Bryostatin 1, [3H]PDBu at 4 °C; cited from earlier work"}, "PKCθ": {"target": "PKCθ", "conditions": "read-out: Previously reported biochemical Ki values, Bryostatin 1, [3H]PDBu at 4 °C; cited from earlier work"}, "PKCβI": {"target": "PKCβI", "conditions": "read-out: Previously reported biochemical Ki values, Bryostatin 1, [3H]PDBu at 4 °C; cited from earlier work"}, "PKCγ": {"target": "PKCγ", "conditions": "read-out: Previously reported biochemical Ki values, Bryostatin 1, [3H]PDBu at 4 °C; cited from earlier work"}, "native PKCα": {"target": "native PKCα (Mus musculus, UniProt P20444)", "assay": "cell-based"}, "[1]": {"conditions": "read-out: Cellular Ki values for native PKCs"}}, "note": "Read-outs that look alike come from different tables or passages of the source.", "data": [{"smiles": "CN(C)CCCn1cc(C2=C(c3c[nH]c4ccccc34)C(=O)NC2=O)c2ccccc21", "note": "[BIM1, bisindolylmaleimide I]", "values": [{"measurement": "effect of BIM1 on cytotoxicity of probes 1–3 towards Jurkat lymphocytes", "setting": "Jurkat E6-1 cells", "result": "reduced or eliminated"}, {"measurement": "effect of BIM1 on toxicity of PDBu towards Jurkat lymphocytes", "setting": "Jurkat E6-1 cells; BIM1 2 μM", "result": "completely blocked"}]}, {"smiles": "CCCC(=O)O[C@@H]1[C@@H](C)[C@@]2(O)[C@@H](C=C(CO)C[C@]3(O)C(=O)C(C)=C[C@@H]23)[C@@H]2C(C)(C)[C@]12OC(=O)CCC", "note": "[PDBu, phorbol 12, 13-dibutyrate]", "values": [{"measurement": "Ki", "setting": "native PKCη; [1]", "result": 27, "unit": "nM"}, {"measurement": "Ki", "setting": "native PKCγ; [1]", "result": 18, "unit": "nM"}, {"measurement": "lower affinity for PKCδ in cells than in biochemical assays", "setting": "native PKCδ", "result": 10, "unit": "fold"}, {"measurement": "Ki", "setting": "native PKCδ; [1]", "result": 45, "unit": "nM"}, {"measurement": "cytotoxicity towards HEK293T cells", "setting": "HEK293T cells", "result": "non-toxic"}, {"measurement": "IC50", "setting": "Jurkat E6-1 cells; read-out: cytotoxic potency towards Jurkat lymphocytes, IC50", "result": 2, "unit": "nM"}, {"measurement": "fluctuation in measured cellular IC50 and Ki values", "setting": "native PKCβI", "result": "less than 3 fold"}, {"measurement": "Ki", "setting": "native PKCβI; [1]", "result": 15, "unit": "nM"}, {"measurement": "Ki", "setting": "PKCδ", "result": "[…]"}, {"measurement": "Cellular Ki values for native PKCs", "setting": "native PKCζ", "result": "No binding"}, {"measurement": "Ki", "setting": "native PKCθ; [1]", "result": 49, "unit": "nM"}, {"measurement": "Ki", "setting": "native PKCε; [1]", "result": 43, "unit": "nM"}]}, {"smiles": "CCC/C=C/C=C/C(=O)O[C@H]1/C(=C/C(=O)OC)C[C@H]2C[C@H]([C@@H](C)O)OC(=O)C[C@H](O)C[C@@H]3C[C@H](OC(C)=O)C(C)(C)[C@](O)(C[C@@H]4C/C(=C/C(=O)OC)C[C@H](/C=C/C(C)(C)[C@]1(O)O2)O4)O3", "note": "[bryostatin 1]", "values": [{"measurement": "Ki", "setting": "native PKCη", "result": 5, "unit": "nM"}, {"measurement": "Ki", "setting": "native PKCγ", "result": 2, "unit": "nM"}, {"measurement": "Ki", "setting": "native PKCδ", "result": 17, "unit": "nM"}, {"measurement": "lower affinity for PKCδ in cells than in biochemical assays", "setting": "native PKCδ; cellular Ki versus previously reported biochemical Ki", "result": 8, "unit": "fold"}, {"measurement": "Previously reported biochemical Ki values, Bryostatin 1", "setting": "PKCζ", "result": "No binding"}, {"measurement": "Ki", "setting": "native PKCβI", "result": 2, "unit": "nM"}, {"measurement": "Ki", "setting": "PKCα", "result": "[…]"}, {"measurement": "Cellular Ki values for native PKCs", "setting": "native PKCζ; PKCζ, competition with probe 1, BIM1 2 μM, 2 h 37 °C", "result": "No binding"}, {"measurement": "Ki", "setting": "PKCε", "result": "[…]"}, {"measurement": "Ki", "setting": "PKCη", "result": "[…]"}, {"measurement": "Ki", "setting": "native PKCθ", "result": 8, "unit": "nM"}, {"measurement": "Ki", "setting": "PKCθ", "result": "[…]"}, {"measurement": "Ki", "setting": "PKCβI", "result": "[…]"}, {"measurement": "Ki", "setting": "native PKCε", "result": 11, "unit": "nM"}, {"measurement": "Ki", "setting": "PKCγ", "result": "[…]"}, {"measurement": "Ki", "setting": "native PKCα", "result": 4, "unit": "nM"}]}]}
